Measurements from US20030032065A1, “Ensemble-based strategy for the design of protein pharmaceuticals” (priority 2001, published 2003).
Ends that are not written are not given here.

Columns and labels:
streptavidin [1] = target: T1, streptavidin (Streptomyces avidinii, UniProt P22629); conditions: peptide-streptavidin complex, experimentally observed binding constant; cited from earlier work
streptavidin [2] = target: T1, streptavidin; assay type: binding; conditions: peptide-streptavidin complex, association constant

T1 sequence (P22629 25-183): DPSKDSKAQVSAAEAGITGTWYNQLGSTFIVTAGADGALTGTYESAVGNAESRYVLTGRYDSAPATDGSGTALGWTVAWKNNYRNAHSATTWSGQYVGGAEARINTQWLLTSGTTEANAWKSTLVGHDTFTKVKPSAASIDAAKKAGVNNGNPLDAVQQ

Row | Substance | Kd (streptavidin [1]) [µM] | Observed KA (streptavidin [2]) [µM⁻¹]
1 | AECHPQFCIEGRK | 0.47 | 2.13
2 | AECHPQFNCIEGRK | 7 | 0.14
3 | AECHPQFPCIEGRK | 0.93 | 1.08
4 | AECHPQGPPCIEGRK | 0.23 | 4.35
5 | AHPQFGAEK | 204 | 0.005
6 | AHPQFPAEK | 136 | 0.007
7 | FSHPQNT |  | 0.008
8 | HDHPQNL | 282 | 0.004
9 | RCCHPQCGMAEEC | 2.3 | 0.45
10 | RCCHPQCGMVEEC | 1.3 | 3.3
11 | RCCHPQFEPCMGC | 0.33 | 3.0
12 | cyclo-(AHPQFGAE)K (AHPQFGAEK; also: cyclic, ring closure not given here) | 19 | 0.05
13 | cyclo-(AHPQFPAE)K (AHPQFPAEK; also: cyclic, ring closure not given here) | 0.13 | 7.69
14 | cyclo-(AQYGHFAE)K (AQYGHFAEK; also: cyclic, ring closure not given here) | > 5000 | 0.0002
15 | cyclo-CHPQFC | 0.27 | 3.70
16 | cyclo-CHPQGPPC (also: cyclic, closure type not given here) | 0.67 | 1.49
